Reference: patent US10314295B2, “Mouse model of hyperuricemia” (PHOENIXBIO CO., LTD., priority 2014, dated 2019)

System: hyperuricemia model mice
Assay: Allopurinol-induced change in plasma uric acid level in hyperuricemia model mice
Type: in vivo, mouse
Experimental: The hyperuricemia model mice obtained as described above were subjected to administration of allopurinol, which is an existing drug for lowering blood uric acid levels. The number of the mice subjected to administration of allopurinol was six.
Allopurinol (Wako Pure Chemical Industries, Ltd.) was suspended in a 0.5 w/v% methylcellulose (MC) 400 solution (sterilized, Wako Pure Chemical Industries, Ltd.) for preparation of a 0.5 mg/mL allopurinol suspension. The 0.5 mg/mL allopurinol suspension was orally administered once in a volume of 10 mL/kg body weight (5 mg/kg body weight).
Blood was collected from each mouse before and 2, 4 and 24 hours after allopurinol or a 0.5 w/v % methylcellulose 400 solution was administered. The plasma uric acid concentration was measured in the same manner as above.

Oc1ncnc2[nH]ncc12 [allopurinol]
mean of the plasma uric acid concentrations (2 hours after single oral 5 mg/kg body weight, 6 mice, mean before administration 3.8 mg/dL, vehicle control 3.0 before, 4.8 at 2 hours): 1.9 mg/dL | change of plasma uric acid concentration by administration (single oral 5 mg/kg body weight, 2 hours after vs before administration): significantly reduced
